From ChEMBL document CHEMBL1201862, “PubChem BioAssay data set” (2004) come the findings set out here.

Experiment [1] concerns the target Intestinal-type alkaline phosphatase (Homo sapiens, UniProt P09923). Description: human intestinal alkaline phosphatase activators, dose response, biochemical, luminescence, uHTS hits (AID 463120). It counts as functional.
Experiment [2] addresses T1, Voltage-gated N-type calcium channel alpha-1B subunit/Amyloid beta A4 precursor protein-binding family A member 1 (Homo sapiens, UniProt Q00975+Q02410). It counts as protein assay.
The nature of experiment [3]: HIV-1 Env-mediated cell fusion inhibitors, dose response, CCR5-tropic Env (AID 2279). Format: functional.
The target in experiment [4] is T1, Voltage-gated N-type calcium channel alpha-1B subunit/Amyloid beta A4 precursor protein-binding family A member 1. It counts as protein assay. This is another data set of the same source.
The target of experiment [5] is Induced myeloid leukemia cell differentiation protein Mcl-1 (Homo sapiens, UniProt Q07820). Format: functional.
The target of experiment [6] is T2, Long-chain-fatty-acid--AMP ligase FadD28 (Mycobacterium tuberculosis, UniProt P9WQ59).
T2 sequence (P9WQ59 whole entry): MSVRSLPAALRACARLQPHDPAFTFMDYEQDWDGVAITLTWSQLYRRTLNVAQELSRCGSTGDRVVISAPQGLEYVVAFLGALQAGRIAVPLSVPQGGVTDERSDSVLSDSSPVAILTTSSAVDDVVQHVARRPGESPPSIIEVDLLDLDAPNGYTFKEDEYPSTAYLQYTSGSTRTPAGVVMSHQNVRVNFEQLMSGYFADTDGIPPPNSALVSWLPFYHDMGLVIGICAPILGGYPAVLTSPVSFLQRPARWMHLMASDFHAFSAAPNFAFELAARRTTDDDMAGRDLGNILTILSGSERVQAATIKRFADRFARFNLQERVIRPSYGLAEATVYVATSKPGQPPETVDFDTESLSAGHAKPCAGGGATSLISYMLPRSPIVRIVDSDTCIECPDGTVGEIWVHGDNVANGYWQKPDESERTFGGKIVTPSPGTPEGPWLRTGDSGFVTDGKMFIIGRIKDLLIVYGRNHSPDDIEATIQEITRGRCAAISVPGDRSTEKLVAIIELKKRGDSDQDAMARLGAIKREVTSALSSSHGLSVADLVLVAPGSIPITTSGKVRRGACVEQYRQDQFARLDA
Description: Fluorescence polarization aasay to screen for inhibitors that compete for the binding of FadD28 to a bisubstrate Measured in Biochemical System Using Plate Reader - 2147-01_Inhibitor_Dose_CherryPick_Activity. Format: functional, Mycobacterium tuberculosis H37Rv. In general terms: Fluorescence polarisation rises when a labelled molecule tumbles more slowly, as on binding a larger partner.

Experiment [7] has as its target G-protein coupled receptor 55 (Homo sapiens, UniProt Q9Y2T6). Kind of experiment: GPR55 antagonists blocking LPI-driven arrestin recruitment, primary screen, imaging, U2OS, beta-arrestin-GFP, LPI agonist (AID 2013).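 Also: antagonist potency measured as reduced agonist-driven arrestin aggregation.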 Format: functional.
The target of experiment [8] is T3, Calpain-2 catalytic subunit (Sus scrofa, UniProt P43367).
T3 sequence (P43367 whole entry): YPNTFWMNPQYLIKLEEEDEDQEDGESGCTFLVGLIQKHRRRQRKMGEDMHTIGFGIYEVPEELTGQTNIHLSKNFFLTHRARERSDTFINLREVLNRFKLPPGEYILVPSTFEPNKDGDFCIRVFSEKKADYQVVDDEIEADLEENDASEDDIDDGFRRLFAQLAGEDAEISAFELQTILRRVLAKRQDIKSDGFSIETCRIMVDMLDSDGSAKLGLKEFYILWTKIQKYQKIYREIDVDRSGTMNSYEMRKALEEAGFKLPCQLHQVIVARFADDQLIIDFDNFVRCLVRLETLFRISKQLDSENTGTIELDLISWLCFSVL
Kind of experiment: pig calpain II inhibitor potency, dose response, biochemical, fluorogenic peptide substrate (AID 1420). Format: functional.

Experiment [9] concerns the target 26S proteasome non-ATPase regulatory subunit 14 (Homo sapiens, UniProt O00487). Kind of experiment: inhibition of proteasome subunit RPN11 – biochemical, fluorescence polarization, uHTS hits, confirmation (AID 602368). Format: functional.
In experiment [10] the target is 72 kDa type IV collagenase (Homo sapiens, UniProt P08253). Description: Dose Response validation of uHTS RPN11 inhibitor hits using a MMP-2 Fluorescence assay. It counts as functional.
In the next experiment the target is Prothrombin (Bos taurus, UniProt P00735). Description: thrombin inhibition, dose response, biochemical, fluorescence polarization, uHTS hits (AID 602369). Format: functional.
Experiment [11] has as its target T4, Sentrin-specific protease 1 (Homo sapiens, UniProt Q9P0U3).
T4 sequence (Q9P0U3 whole entry): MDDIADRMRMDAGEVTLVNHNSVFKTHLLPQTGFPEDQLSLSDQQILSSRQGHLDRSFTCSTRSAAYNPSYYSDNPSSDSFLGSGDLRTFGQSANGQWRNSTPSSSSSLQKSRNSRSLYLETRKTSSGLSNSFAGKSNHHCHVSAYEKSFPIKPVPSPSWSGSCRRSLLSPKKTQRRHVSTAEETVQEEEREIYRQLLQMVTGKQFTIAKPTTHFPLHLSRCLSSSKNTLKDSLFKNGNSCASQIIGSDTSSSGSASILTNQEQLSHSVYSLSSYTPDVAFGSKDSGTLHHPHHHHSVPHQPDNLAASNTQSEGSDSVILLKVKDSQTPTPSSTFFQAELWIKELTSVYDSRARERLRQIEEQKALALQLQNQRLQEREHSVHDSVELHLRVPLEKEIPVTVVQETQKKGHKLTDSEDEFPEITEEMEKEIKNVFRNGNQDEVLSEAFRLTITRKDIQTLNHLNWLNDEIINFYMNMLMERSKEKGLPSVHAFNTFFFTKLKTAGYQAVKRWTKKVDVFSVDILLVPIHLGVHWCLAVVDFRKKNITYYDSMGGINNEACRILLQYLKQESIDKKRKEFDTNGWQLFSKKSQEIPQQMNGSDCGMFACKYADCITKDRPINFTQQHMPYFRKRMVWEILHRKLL
Description: potency of human SENP1 inhibitors, dose response, biochemical, kinetic FRET (AID 651697). It counts as functional. The conditions noted are these: read-out: IC50_Mean.

Experiment [12] concerns the target T4, Sentrin-specific protease 1. Kind of experiment: Dose response confirmation of small molecule inhibitors of the catalytic domain of the SUMO protease, SENP1 in a FRET assay. Format: functional. The conditions noted are these: read-out: IC50_Mean.
The target of experiment [13] is Peroxisome proliferator-activated receptor gamma/Nuclear receptor coactivator 1 (Homo sapiens, UniProt P37231). Kind of experiment: TR-FRET dose response biochemical High Throughput Screening assay for agonists of the steroid receptor coactivator 1 (SRC-1) recruitment by the peroxisome proliferator-activated receptor gamma (PPAR gamma): non-selective agonists. [Related pubchem assays (depositor defined):AID1300, AID1808, AID504735, AID631]. It counts as protein assay. A general note: TR-FRET usually uses a lanthanide donor and a delayed reading to cut background.

The target of experiment [14] is Peroxisome proliferator-activated receptor gamma/Nuclear receptor coactivator 3 (Homo sapiens, UniProt P37231). Description: TR-FRET dose response biochemical High Throughput Screening assay for agonists of the steroid receptor coactivator 3 (SRC-3) recruitment by the peroxisome proliferator-activated receptor gamma (PPAR gamma): non-selective agonists. [Related pubchem assays: 1301 (Confirmation screen.), 1048 (Primary screen.)]. Format: functional.

The target of experiment [15] is Peroxisome proliferator-activated receptor gamma/Nuclear receptor coactivator 2 (Homo sapiens, UniProt P37231). Kind of experiment: TR-FRET dose response biochemical High Throughput Screening assay for agonists of the steroid receptor coactivator 2 (SRC-2) recruitment by the peroxisome proliferator-activated receptor gamma (PPAR gamma): non-selective agonists. [Related pubchem assays: 1297, 1032 ]. Format: functional.

The target of experiment [16] is T1, Voltage-gated N-type calcium channel alpha-1B subunit/Amyloid beta A4 precursor protein-binding family A member 1. Kind of experiment: disruptors of Mint-PDZ/N-type channel peptide interaction – biochemical, HTRF, SAR follow-up (AID 2489). It counts as functional.
Experiment [17] addresses T5, E3 ubiquitin-protein ligase XIAP (Homo sapiens, UniProt P98170). Description: Counter Screen using XIAP-Bir3 for Chemical Antagonists of Bir1/2 domains of IAP-family anti-apoptotic proteins. [Related pubchem assays (depositor defined):AID1018, AID1449, AID1514, AID1638, AID1749, AID1750, AID488957, AID488963]. A general note: A counterscreen serves to expose hits that act by an unwanted route or on another target.

The target of experiment [18] is T5, E3 ubiquitin-protein ligase XIAP. Description: XIAP antagonists, biochemical, IAP family, fluorescence polarization (AID 1018). It counts as functional.

Calls of active or inactive are those of the source.

T5 sequence (P98170 whole entry): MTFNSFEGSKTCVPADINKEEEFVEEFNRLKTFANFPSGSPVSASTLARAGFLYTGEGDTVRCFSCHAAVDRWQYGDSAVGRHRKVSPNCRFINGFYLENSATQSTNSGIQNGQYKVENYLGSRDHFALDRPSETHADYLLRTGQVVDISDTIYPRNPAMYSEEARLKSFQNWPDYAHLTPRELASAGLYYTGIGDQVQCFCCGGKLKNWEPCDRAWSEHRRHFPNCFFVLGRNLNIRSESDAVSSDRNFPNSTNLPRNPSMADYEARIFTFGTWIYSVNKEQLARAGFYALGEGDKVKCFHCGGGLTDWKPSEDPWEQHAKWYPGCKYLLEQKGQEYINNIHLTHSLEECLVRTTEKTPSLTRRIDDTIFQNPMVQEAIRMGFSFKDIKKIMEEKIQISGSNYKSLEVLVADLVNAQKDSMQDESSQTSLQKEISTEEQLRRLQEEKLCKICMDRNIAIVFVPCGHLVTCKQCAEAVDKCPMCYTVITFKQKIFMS
T1 sequence (Q00975 whole entry, the tested form may be a part): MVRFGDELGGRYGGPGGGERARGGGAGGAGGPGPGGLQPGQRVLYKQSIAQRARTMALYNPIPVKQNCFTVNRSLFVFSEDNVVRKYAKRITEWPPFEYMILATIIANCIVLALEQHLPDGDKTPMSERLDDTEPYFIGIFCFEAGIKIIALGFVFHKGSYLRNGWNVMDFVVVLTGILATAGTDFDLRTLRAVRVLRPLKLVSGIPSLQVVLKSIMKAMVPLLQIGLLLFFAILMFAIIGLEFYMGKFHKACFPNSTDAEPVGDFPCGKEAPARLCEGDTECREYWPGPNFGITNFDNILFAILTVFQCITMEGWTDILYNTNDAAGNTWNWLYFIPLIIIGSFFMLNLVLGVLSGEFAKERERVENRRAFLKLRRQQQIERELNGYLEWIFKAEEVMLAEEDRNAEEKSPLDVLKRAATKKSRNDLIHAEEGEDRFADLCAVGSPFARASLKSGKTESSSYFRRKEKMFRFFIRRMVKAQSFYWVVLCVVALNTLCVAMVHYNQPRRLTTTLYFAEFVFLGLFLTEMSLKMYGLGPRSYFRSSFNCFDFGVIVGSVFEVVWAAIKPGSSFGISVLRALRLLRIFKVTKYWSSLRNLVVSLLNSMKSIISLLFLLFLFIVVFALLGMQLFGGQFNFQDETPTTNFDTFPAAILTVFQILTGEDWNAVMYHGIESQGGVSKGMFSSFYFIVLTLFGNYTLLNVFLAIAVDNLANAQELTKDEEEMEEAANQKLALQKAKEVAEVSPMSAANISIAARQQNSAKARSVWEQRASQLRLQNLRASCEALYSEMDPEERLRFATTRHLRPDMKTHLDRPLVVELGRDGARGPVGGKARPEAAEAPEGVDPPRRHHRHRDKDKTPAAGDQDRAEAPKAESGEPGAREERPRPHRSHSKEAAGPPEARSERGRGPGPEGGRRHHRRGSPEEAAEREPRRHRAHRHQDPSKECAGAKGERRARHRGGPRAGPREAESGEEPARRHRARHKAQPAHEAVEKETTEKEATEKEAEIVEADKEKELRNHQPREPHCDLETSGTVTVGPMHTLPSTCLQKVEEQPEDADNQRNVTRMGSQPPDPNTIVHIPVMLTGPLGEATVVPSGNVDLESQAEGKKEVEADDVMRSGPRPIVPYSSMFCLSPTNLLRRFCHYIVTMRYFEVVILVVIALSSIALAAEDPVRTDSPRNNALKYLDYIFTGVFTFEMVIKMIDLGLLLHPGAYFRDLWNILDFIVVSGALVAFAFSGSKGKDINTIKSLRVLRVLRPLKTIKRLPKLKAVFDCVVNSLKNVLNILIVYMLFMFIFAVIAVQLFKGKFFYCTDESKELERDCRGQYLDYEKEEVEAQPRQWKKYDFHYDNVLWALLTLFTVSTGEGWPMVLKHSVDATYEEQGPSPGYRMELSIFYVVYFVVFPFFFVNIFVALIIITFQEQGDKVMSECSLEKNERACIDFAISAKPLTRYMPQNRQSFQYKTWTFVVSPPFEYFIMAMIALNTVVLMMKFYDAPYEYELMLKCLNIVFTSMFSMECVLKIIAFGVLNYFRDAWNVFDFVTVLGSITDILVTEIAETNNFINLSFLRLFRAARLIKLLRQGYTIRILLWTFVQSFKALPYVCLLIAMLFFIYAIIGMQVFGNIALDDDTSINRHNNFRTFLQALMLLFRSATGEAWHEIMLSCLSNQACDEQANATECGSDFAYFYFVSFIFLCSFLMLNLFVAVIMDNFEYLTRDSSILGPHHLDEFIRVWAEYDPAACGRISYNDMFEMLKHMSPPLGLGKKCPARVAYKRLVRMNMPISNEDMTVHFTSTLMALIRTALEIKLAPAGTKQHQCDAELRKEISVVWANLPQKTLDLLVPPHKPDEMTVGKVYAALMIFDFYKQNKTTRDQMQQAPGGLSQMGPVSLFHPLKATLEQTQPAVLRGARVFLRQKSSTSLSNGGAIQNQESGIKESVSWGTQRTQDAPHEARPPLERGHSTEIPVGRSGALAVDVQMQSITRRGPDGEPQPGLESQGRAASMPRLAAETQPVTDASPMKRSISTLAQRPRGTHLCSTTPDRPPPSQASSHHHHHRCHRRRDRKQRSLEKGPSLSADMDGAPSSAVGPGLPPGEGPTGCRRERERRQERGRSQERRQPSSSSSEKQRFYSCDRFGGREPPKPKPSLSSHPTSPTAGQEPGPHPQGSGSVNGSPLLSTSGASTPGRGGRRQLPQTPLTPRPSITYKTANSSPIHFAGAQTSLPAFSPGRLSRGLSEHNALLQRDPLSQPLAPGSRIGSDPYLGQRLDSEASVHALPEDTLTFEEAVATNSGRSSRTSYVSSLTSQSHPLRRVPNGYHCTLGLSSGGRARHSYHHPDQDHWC
T1 sequence (Q02410 whole entry, the tested form may be a part): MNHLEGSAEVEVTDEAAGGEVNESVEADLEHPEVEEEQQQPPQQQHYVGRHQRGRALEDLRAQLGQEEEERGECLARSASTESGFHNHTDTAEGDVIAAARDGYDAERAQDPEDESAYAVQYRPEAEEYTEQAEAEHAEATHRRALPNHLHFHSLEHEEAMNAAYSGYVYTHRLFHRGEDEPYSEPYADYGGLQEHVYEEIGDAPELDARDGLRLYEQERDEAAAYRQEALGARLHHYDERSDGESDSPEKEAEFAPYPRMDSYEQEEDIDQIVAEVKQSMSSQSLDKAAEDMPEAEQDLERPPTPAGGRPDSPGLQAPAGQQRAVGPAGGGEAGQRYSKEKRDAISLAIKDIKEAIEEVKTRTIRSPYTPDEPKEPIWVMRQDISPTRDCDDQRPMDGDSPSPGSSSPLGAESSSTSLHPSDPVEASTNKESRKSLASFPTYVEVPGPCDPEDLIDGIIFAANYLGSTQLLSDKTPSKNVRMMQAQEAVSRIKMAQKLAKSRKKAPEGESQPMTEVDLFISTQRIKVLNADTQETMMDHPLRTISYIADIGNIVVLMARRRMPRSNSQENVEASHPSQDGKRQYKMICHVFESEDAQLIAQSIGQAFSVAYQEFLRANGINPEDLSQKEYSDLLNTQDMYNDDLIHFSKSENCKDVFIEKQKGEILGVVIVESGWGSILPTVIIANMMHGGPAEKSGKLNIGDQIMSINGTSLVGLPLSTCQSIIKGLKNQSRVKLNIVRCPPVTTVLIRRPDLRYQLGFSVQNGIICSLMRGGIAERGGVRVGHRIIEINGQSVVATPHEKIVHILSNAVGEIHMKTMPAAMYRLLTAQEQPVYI
Sequence of 26S proteasome non-ATPase regulatory subunit 14 (O00487 whole entry): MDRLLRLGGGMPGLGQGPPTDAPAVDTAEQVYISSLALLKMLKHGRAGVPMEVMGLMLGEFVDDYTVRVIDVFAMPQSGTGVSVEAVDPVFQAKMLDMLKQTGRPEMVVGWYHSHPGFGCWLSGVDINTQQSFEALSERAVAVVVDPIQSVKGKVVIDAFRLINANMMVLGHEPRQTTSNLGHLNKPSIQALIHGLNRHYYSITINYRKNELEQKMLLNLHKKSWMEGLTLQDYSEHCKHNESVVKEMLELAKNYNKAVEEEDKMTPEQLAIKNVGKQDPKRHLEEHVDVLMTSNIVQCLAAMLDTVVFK
Sequence of Induced myeloid leukemia cell differentiation protein Mcl-1 (Q07820 whole entry): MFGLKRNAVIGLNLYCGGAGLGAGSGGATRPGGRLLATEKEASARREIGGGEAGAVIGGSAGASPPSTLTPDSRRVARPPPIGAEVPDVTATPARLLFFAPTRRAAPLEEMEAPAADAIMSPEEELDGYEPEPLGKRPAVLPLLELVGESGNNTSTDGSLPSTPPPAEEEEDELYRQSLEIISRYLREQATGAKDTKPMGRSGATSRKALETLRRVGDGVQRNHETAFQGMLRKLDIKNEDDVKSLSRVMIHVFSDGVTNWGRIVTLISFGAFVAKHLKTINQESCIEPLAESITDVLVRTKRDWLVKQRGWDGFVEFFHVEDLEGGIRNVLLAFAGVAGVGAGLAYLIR
Sequence of Intestinal-type alkaline phosphatase (P09923 whole entry): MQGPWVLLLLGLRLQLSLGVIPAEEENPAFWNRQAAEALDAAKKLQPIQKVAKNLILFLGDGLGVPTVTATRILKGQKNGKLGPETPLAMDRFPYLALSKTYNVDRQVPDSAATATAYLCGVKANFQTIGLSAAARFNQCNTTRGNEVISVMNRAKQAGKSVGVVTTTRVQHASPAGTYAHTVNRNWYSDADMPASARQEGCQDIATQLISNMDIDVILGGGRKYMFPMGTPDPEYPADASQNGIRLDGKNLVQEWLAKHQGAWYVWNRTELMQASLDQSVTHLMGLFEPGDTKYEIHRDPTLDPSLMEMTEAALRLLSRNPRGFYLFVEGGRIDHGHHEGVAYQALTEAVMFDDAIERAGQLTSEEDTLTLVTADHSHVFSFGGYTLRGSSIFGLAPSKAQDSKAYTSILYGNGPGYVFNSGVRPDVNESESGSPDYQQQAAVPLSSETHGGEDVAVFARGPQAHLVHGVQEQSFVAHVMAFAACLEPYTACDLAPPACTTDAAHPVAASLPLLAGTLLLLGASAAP

The EC50 is the concentration giving half of the maximal effect. `O=C(CSc1nc[nH]n1)NCCc1ccccc1`: the EC50 in [1] was > 100 µM (inactive).

Usually AC50 stands for the concentration giving half of the maximal activity seen. Turning to `Cc1c2c(=O)n(-c3nc4ccccc4s3)nc-2cc(O)n1Cc1ccccc1`, the IC50 in experiment [2] was 3.01 µM (active); in experiment [3], 17.4 µM (active); in experiment [4], > 50 µM (inactive); in experiment [5], 4.32 µM (active). The AC50 in [6] is 20.5 µM (active).

For the molecule `O=C(NCCSCc1ccccc1)c1ccc(C2SCC(=O)N2Cc2ccccc2)cc1` (stereo not drawn), the IC50 in [7] was 1.49 µM (active); in [8] it was 4.77 µM (not active); in experiment [9] it was 37.5 µM (active); in experiment [10], > 100 µM (inactive); on Prothrombin it was 50.5 µM (active); in experiment [11], 11 µM (active). In addition, the IC50 in experiment [12] was 19.1 µM (active).

In the case of `O=C(CSc1ncnc2c1oc1ccccc12)NCc1ccc(F)cc1`, the EC50 is 21.9 µM (inactive) in [13], 83.1 µM (not active) in experiment [14] and 20.5 µM (not active) in experiment [15].

Consider `Cc1ccc(/C=C/C(=O)N2CCN(c3ncccn3)CC2)o1`, for which the figures for the IC50 in experiment [2], in experiment [4] and in experiment [16] were 4.71 µM (active), 4.77 µM (active) and > 56.8 µM (inactive), respectively.

On to `Nc1ncnc(Sc2ccc(Cl)cc2)c1[N+](=O)[O-]`, for which the figures for the IC50 in experiment [17] and in experiment [18] were > 100 µM (inactive) and > 100 µM (not active), respectively.

On to `COc1cc2cnc(Cl)nc2cc1OC`, for which the IC50 is > 100 µM (inactive) in experiment [17] and > 100 µM (not active) in [18].
